The nature of one data set: in vitro. Format: in vitro ADME. The note with it: rat, lung cytosol. On the procedure:
To determine that the compounds of the invention can be stable during the incubation period, the test compounds A, B, C, and D were investigated for their stabilities at the incubation conditions, which are room temperature and 2 hours, for receptor binding studies. The frozen cytosol which was made for the receptor binding study was thawed in a water bath and diluted with 1 part of incubation buffer (10 mM Tris/HCl, 10 mM sodium molybdate, and 2 mM 1,4-dithiothreitol) containing a 15 mM concentration of enzyme inhibitor, diisopropyl fluorophosphate. Portions (560 μL) of the diluted cytosol were added to centrifuge tubes containing 80 μL portions of blank incubation buffer instead of volume of tracer ([^3 H]triamcinolone acetonide) which would be used in the receptor binding study (RBS), 80 μL of solution of a Δ^1 -cortienic acid (0.1 mM) in buffer (the final concentration of Δ^1 -cortienic acid in the incubation medium was […]), and 80 μL of 100,000 nM of concentrations of test compounds in ethanol to give a final concentration of 10,000 nM. This mixture was kept at room temperature for 2 hours. Samples of 0.1 mL were taken at appropriate time intervals (0, 0.5, 1, 1.5, 2 hours) and were mixed with 0.2 mL of acetonitrile containing 5% DMSO. Each mixture was centrifuged and the supernatant were injected in the HPLC.
Male Sprague-Dawley rats, each weighing 150 to 200 g, were used 6 days after adrenalectomy. Rats were sacrificed by decapitation. Immediately after resection of the lungs, the tissue was frozen in ice. The cytosol was prepared using a slight modification of a previously described method (Dahlberg, 1984); After addition of 6 volumes of ice-cold incubation buffer (10 mM Tris/HCl, 10 mM sodium molybdate, and 2 mM 1,4-dithiothreitol), the tissue was homogenized with the Virtis 45 homogenizer at full speed, for 4 periods of 10 seconds with a 10-second cooling period between each step. The homogenate was centrifuged at 35,000 g for 1 hour at 4° C. in a Beckman ultracentrifuge L8-70M equipped with a T170 rotor. Portions (5 ml) of the cytosol were frozen in liquid nitrogen and stored at -80° C.

The target of data set [1] is T1, rat lung glucocorticoid receptor (Rattus norvegicus, UniProt P06536).
T1 construct: Immediately after resection of the lungs, the tissue was frozen in ice; The cytosol was prepared; from tissue; host or cells: lung cytosol of adrenalectomized male Sprague-Dawley rats
T1 sequence (P06536 1-795): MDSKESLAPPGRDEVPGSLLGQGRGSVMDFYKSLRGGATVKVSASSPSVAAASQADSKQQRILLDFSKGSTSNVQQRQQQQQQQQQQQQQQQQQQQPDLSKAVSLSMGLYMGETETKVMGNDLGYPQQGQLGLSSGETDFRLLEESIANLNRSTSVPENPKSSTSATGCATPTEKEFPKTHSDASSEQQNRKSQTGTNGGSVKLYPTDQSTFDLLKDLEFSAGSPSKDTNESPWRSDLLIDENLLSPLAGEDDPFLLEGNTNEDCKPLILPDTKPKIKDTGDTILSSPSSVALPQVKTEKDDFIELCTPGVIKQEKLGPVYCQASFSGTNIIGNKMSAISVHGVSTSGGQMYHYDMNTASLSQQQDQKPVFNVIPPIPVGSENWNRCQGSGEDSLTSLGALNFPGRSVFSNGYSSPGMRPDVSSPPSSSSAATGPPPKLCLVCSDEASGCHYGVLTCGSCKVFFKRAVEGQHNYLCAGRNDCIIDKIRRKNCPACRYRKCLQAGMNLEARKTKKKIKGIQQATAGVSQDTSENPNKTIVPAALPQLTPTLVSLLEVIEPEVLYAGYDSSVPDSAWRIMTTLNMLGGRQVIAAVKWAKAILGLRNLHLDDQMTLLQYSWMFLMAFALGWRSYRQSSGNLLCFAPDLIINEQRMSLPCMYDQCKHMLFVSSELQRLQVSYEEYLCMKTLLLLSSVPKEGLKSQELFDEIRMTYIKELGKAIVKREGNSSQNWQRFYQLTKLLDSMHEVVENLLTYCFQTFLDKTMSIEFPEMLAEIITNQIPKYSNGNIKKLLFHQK
The experiment in a line: Receptor binding studies ([3H]triamcinolone acetonide displacement). The note with it: further receptor binding studies (Table X); dexamethasone = 100; * mean ± SE of 3-5 results. The method, then: Male Sprague-Dawley rats, each weighing 150 to 200 g, were used 6 days after adrenalectomy. Rats were sacrificed by decapitation. Immediately after resection of the lungs, the tissue was frozen in ice. […] Portions (5 ml) of the cytosol were frozen in liquid nitrogen and stored at -80° C.
The cytosol was thawed in a water bath and diluted with 1 part of incubation buffer containing a 15 mM concentration of diisopropyl fluorophosphate. […] After a 2 hour incubation period at room temperature (24° C.), the unbound steroid was removed by addition of a 2% suspension of activated charcoal in incubation buffer (400 μL). The mixture was incubated for 5 minutes at room temperature and then was centrifuged at about 10,000 g for 3 minutes in the microcentrifuge. The radioactivity (cpm) in the supernatant (400 μL) was determined by liquid scintillation counting.
The data is fitted to the following logistic function:
B=T-T * C^N /(C^N +IC50^N)+NS,
where B=CPM in the presence of competitor, T=CPM in the absence of competitor, C=competitor concentration, N=Hill slope factor, and NS=cpm under non-specific binding conditions.
For the representative compound of the invention B, receptor binding affinity was investigated with and without Δ^1 -cortienic acid in the incubation solution to study the effect of Δ^1 -cortienic acid on the receptor binding.
Further studies to evaluate the relative receptor binding affinities of compounds of the invention, other compounds of formula (VII) hereinabove and well-known anti-inflammatory steroids were undertaken, using the methods described in the RECEPTOR BINDING STUDIES set forth above. […] For comparison purposes, the following compounds having formula (VII) above were also tested: […]

The subject of data set [2] is forearms of a human volunteer. Nature of the data set: Further human vasoconstriction testing, Method 1. Format: in vivo. On the procedure:
The mixtures, in 50 μL amounts, were applied to circular patches (8 mm diameter). After evaporation of ethanol, the patches were applied to the forearms of a human volunteer, and covered with a water impervious film for 3 hr. The intensity of vasoconstriction (scale 0-4) was judged at various time intervals after removal of the patches. The grading scale was as follows: 0, normal skin; 1, slight pallor of indistinct outline; 2, pallor with at least two corners outlined; 3, even pallor with a clear outline of the application sites; 4, very intense pallor. The skin tests (2-4 tests on each compound) were performed on the same person.

The mark [3] stands for this setting: 24 Hours, 1 hour re-occlusion at 20-21 hours, 0.01 mM.
The mark [4] stands for this setting: 24 Hours, 1 hour re-occlusion at 20-21 hours, 0.05 mM.
Setting [5] is: 24 Hours, 1 hour re-occlusion at 20-21 hours, 0.1 mM.
[6] abbreviates: 24 Hours, 1 hour re-occlusion at 20-21 hours, 0.5 mM.

For orientation: amount remaining means the share of the starting amount still present when the sample was taken. Low readings indicate more turnover, high ones less turnover. `CCOC(=O)[C@@]1(OC(=O)CC)CC[C@H]2[C@@H]3CCC4=CC(=O)C=C[C@]4(C)[C@H]3[C@@H](O)C[C@@]21C` [Compound P, reference compound] registered an amount remaining at 2 h in the data set “in vitro” above 90%. In data set [1], this compound displayed an RBA of 38. Further, the Vasoconstriction activity in data set [2] (3 Hours, 0.01 mM) turned out to be 0; in data set [2] (3 Hours, 0.05 mM), 0; in data set [2] (3 Hours, 0.1 mM), 0; in data set [2] (3 Hours, 0.5 mM), 1; in data set [2] (3 Hours, 1 mM), 2; in data set [2] (3 Hours, 5 mM), 3. In addition, the Vasoconstriction activity in data set [2] (20 Hours, 0.01 mM) is on record as 0; in data set [2] (20 Hours, 0.05 mM), 0; in data set [2] (20 Hours, 0.1 mM) it was 0; in data set [2] (20 Hours, 0.5 mM) it was 0; in data set [2] (20 Hours, 1 mM) it was 1; in data set [2] (20 Hours, 5 mM) it was 1. Moreover, the Vasoconstriction activity worked out at 0 in data set [2] (setting [3]), 0 in data set [2] (setting [4]), 1 in data set [2] (setting [5]) and 2 in data set [2] (setting [6]).
Turning to `CCOC(=O)[C@@]1(OC(=O)CCl)CC[C@H]2[C@@H]3CCC4=CC(=O)C=C[C@]4(C)[C@H]3[C@@H](O)C[C@@]21C` [Compound R, ethyl 17α-chloroacetoxy-11β-hydroxyandrosta-1,4-dien-3-one-17β-carboxylate], the share remaining at 2 h in “in vitro” amounted to 30%. The RBA in data set [1] was 22. For the same compound, the Vasoconstriction activity in data set [2] (3 Hours, 0.01 mM) was determined as 0; in data set [2] (3 Hours, 0.05 mM) it was 0; in data set [2] (3 Hours, 0.1 mM) it was 0; in data set [2] (3 Hours, 0.5 mM), 1; in data set [2] (3 Hours, 1 mM) it was 1; in data set [2] (3 Hours, 5 mM) it was 1. For the same compound, the Vasoconstriction activity in data set [2] (20 Hours, 0.01 mM) is 0; in data set [2] (20 Hours, 0.05 mM), 0; in data set [2] (20 Hours, 0.1 mM), 0; in data set [2] (20 Hours, 0.5 mM), 0; in data set [2] (20 Hours, 1 mM), 0; in data set [2] (20 Hours, 5 mM), 0. Also, the Vasoconstriction activity in data set [2] (setting [3]), in data set [2] (setting [4]), in data set [2] (setting [5]) and in data set [2] (setting [6]) was 0 in each case.
`CCOC(=O)[C@@]1(OC(=O)C(C)Cl)CC[C@H]2[C@@H]3CCC4=CC(=O)C=C[C@]4(C)[C@H]3[C@@H](O)C[C@@]21C` (stereo partly drawn) [Q, ethyl 17α-(α-chloro)propionyloxy-11β-hydroxyandrosta-1,4-dien-3-one-17β-carboxylate] had an amount remaining at 2 h in “in vitro” above 90%. In data set [1], this compound yielded an RBA of 88. Also, the Vasoconstriction activity in data set [2] (3 Hours, 0.01 mM) came out at 0; in data set [2] (3 Hours, 0.05 mM), 0; in data set [2] (3 Hours, 0.1 mM), 0; in data set [2] (3 Hours, 0.5 mM), 1; in data set [2] (3 Hours, 1 mM), 1; in data set [2] (3 Hours, 5 mM) it was 3. Moreover, the Vasoconstriction activity came to 0 in data set [2] (20 Hours, 0.01 mM); 0 in data set [2] (20 Hours, 0.05 mM); 0 in data set [2] (20 Hours, 0.1 mM); 1 in data set [2] (20 Hours, 0.5 mM); 1 in data set [2] (20 Hours, 1 mM); 1 in data set [2] (20 Hours, 5 mM). In addition, the Vasoconstriction activity in data set [2] (setting [3]) came out at 0; in data set [2] (setting [4]) it was 0; in data set [2] (setting [5]) it was 1; in data set [2] (setting [6]), 2.
